For four compounds, melting point results are on record in patent US20060177474A1, “Agricultural and horticultural poison bait preparation” (priority 2005, published 2006).

Consider `Cc1cc(C(F)(C(F)(F)F)C(F)(F)F)ccc1N(C(=O)c1cccc(Cl)c1C(N)=O)C(C)CS(C)(=O)=O` (stereo not shown) [compound 37, 3-chloro-N^1-{2-methyl-4-[1,2,2,2-tetrafluoro-1-(trifluoromethyl)ethyl]phenyl}-N^1-(1-methyl-2-methylsulfonylethyl)phthalamide], for which the melting point – broadly, the temperature of the solid-liquid transition – lay within 155 to 156 °C. Turning to `Cc1cc(C(F)(C(F)(F)F)C(F)(F)F)ccc1N(C(=O)c1c(I)cccc1C(N)=O)C(C)CS(C)(=O)=O` (stereo not shown) [compound 27, 3-iodo-N′-{2-methyl-4-[1,2,2,2-tetrafluoro-1-(trifluoromethyl)ethyl]phenyl}-N^2-(1-methyl-2-methylsulfonylethyl)phthalamide], the melting point amounted to 82 °C. Under `Cc1cc(C(F)(C(F)(F)F)C(F)(F)F)ccc1NC(=O)c1cccc(I)c1C(=O)NC(C)C[S+](C)[O-]` (stereo not shown) [compound 28, 3-iodo-N^1-{2-methyl-4-[1,2,2,2-tetrafluoro-1-(trifluoromethyl)ethyl]phenyl}-N^2-(1-methyl-2-methylsulfinylethyl)phthalamide] stands 134 °C; under `Cc1cc(C(F)(C(F)(F)F)C(F)(F)F)ccc1NC(=O)c1cccc(Br)c1C(=O)NC(C)CS(C)(=O)=O` (stereo not shown), 153 to 155 °C.
